Laboratory results taken from US9206236B2, “Peptides for treating cancer” (Gene Signal International SA, priority 2010, dated 2015).
Entries after “also recorded” stand apart in the source; their conditions may differ. Where a SMILES comes first, the peptide text is derived from it. [ ]: non-standard residue; d: D form. pY = N[C@@H](Cc1ccc(OP(=O)(O)O)cc1)C(=O)O

Legend:
mTOR = mTOR status in HMEC after incubation with peptides (anti-mTor antibody Ser2448); type: cell-based, human
Method: (§1) Human EC grown in EGM-2MV (80% confluence) were incubated with the peptides of the invention or vehicle for the indicated time, washed three times in cold PBS and directly lysed in 2 ml of ice-cold lysis buffer (10 mM Tris pH 7.5, 150 mM NaCl, 1 mM PMSF, 0.5 μg/ml leupeptin, 1 μg/ml pepstatin A, and 1 μg/ml aprotinin) by incubation for 30 min at 4° C. Cell lysate were spun at […] for 10 min, insoluble materials were discarded, and protein contents measured by Bradford assay of supernatants were adjusted. Cell lysate (1 ml) was precleared with 25 μl of protein G-plus agarose beads (Santa Cruz) for 30 min, and proteins were then immunoprecipitated by adding 2 μg of the indicated antibody and incubated for 1 hr. The immunocomplex was pulled down with protein G-plus agarose beads and the beads were washed three times with lysis buffer. The immunoprecipitates were separated by NuPAGE® 4-12% Bis-Tris gel electrophoresis under reducing conditions, transferred to PVDF membrane (Novex System, Invitrogen), and the membrane was blocked with 5% (w/v) non-fat milk in TBS containing 0.1% v/v Tween-20 for 1 hr.
The status of mTOR in the HMEC following incubation with peptides GS-0 and GS-1 was investigated.

[1] = Solubility of peptides in 10% DMSO in PBS; type: physicochemical; conditions: 1 mg of peptide/ml of 10% DMSO in PBS
Method: GS-1 as well as the control peptide GS-0 were solubilized in DMSO and the resulting solutions were diluted 10 times with phosphate buffer saline (PBS) to obtain a concentration of 1 mg of peptide/ml of 10% DMSO in PBS. At this concentration, all peptides were soluble in 10% DMSO.
GS-2 as well as the control peptide GS-0 were solubilized in DMSO and the resulting solutions were diluted 10 times with phosphate buffer saline (PBS) to obtain a concentration of 1 mg of peptide/ml of 10% DMSO in PBS. At this concentration, all peptides were soluble in 10% DMSO.

[2] = Body weight and toxicity of mice bearing NCI-H460 tumors (Example 2); type: in vivo
Method: All experiments were reviewed by the Genopole's institutional animal care and use committee and were performed in accordance with institutional guidelines for animal care. Female BALB/c nu/nu mice (n=30) were used at 5-6 weeks of age. The animals were housed in laminar air-flow cabinets under pathogen-free conditions with a 12 h light/12 h dark schedule, and fed autoclaved standard chow and water ad libitum. […] Tumor cells (10^7 cells in 200 μl of HBSS) were injected subcutaneously into the right flanks of mice. […] At tumor volume about 150 mm3, animals were randomized, and separated into five groups of five animals. Control mice (group 1) were intraperitoneally injected with vehicle (10% DMSO in buffer saline) every day. GS-0 was dissolved in vehicle and intraperitoneally injected (group 2) every day (12 injections). GS-1 was dissolved in vehicle and intraperitoneally injected (group 3) every day (12 injections). Tumor volume and body weight were measured every other day over the treatment period (12 days).

[3] = tested on: human microvascular endothelial cells (HMEC); assay: In vitro angiogenesis assay (Matrigel tube formation); type: cell-based; conditions: 500 μg/ml final concentration of peptide, images at 18 h
Method: Angiogenesis of human microvascular endothelial cells (HMEC) was induced in vitro using a Matrigel assay described by Al-Mahmood et al (2009, JPET, 2009; 58:933). This method is based on the differentiation of endothelial cells to form capillary structures on a Matrigel Matrix. Matrigel is prepared the Engelbreth-Holm-Swarm (EHS) mouse tumor, which represents a complex mixture of basement membrane proteins including type IV collagen, entactin, proteo-heparan sulfate and other growth factors.
Briefly, 250 μl of Matrigel were transferred to each well of a 24-well culture plate and incubated at 37° C. for 30 min to allow for the matrix solution to solidify. HMEC grown in complete growth medium EGM-2MV were harvested by trypsin, suspended in the same growth medium and 500 μl containing 70 000 cells were added on top of the solidified Matrigel in each well and in the presence or absence of peptide. Cells were maintained in a humidified atmosphere air containing 5% CO2 at 37° C. for 18-24 hrs. Endothelial tube formation was observed and photographed under an inverted light microscope.
The designed tyrosine phosphorylated and non phosphorylated peptides were tested for their influence onto the in vitro angiogenesis. The results of the in vitro angiogenesis assay were presented in FIG. 1, using HMEC and 500 μg/ml final concentration of each peptide.

NCI-H460 tumors = assay: NCI-H460 tumor xenograft in nude mice, tumor volume (Example 2); type: in vivo
Method: H460 cell line has cytology compatible with human Non-Small Cell Lung Cancer (NSCL). Cells were grown in MEM medium containing 10% FCS at 37° C., 5% CO2 humidified atmosphere. The absence of mycoplasms was confirmed by using the PCR Mycoplasma Detection kit (Takara). All experiments were reviewed by the Genopole's institutional animal care and use committee and were performed in accordance with institutional guidelines for animal care. Female BALB/c nu/nu mice (n=30) were used at 5-6 weeks of age. The animals were housed in laminar air-flow cabinets under pathogen-free conditions with a 12 h light/12 h dark schedule, and fed autoclaved standard chow and water ad libitum. The NCI-H460 human NSCL cell line was obtained from American Type Culture Collection (ATCC) and cells were grown in RPMI medium 1640 supplemented with 1 μM sodium pyruvate. Tumor cells (10^7 cells in 200 μl of HBSS) were injected subcutaneously into the right flanks of mice. After engraftment, tumor volume was measured by Vernier callipers, and calculated as described in Balsari A et al. (Balsari A et al. (2004) Eur J Cancer 40: 1275-1281). At tumor volume about 150 mm3, animals were randomized, and separated into five groups of five animals. Control mice (group 1) were intraperitoneally injected with vehicle (10% DMSO in buffer saline) every day. GS-0 was dissolved in vehicle and intraperitoneally injected (group 2) every day (12 injections). GS-1 was dissolved in vehicle and intraperitoneally injected (group 3) every day (12 injections). Tumor volume and body weight were measured every other day over the treatment period (12 days). GS-1 as well as the control peptide GS-0 were solubilized in DMSO and the resulting solutions were diluted 10 times with phosphate buffer saline (PBS) to obtain a concentration of 1 mg of peptide/ml of 10% DMSO in PBS. At this concentration, all peptides were soluble in 10% DMSO.

[4] = target: T1, recruitment of the regulatory subunit (p85) of the enzyme PI-3K by IRS-1 (Homo sapiens, UniProt P27986); assay: Recruitment of p85 of PI-3K by IRS-1 (IRS-1 immunoprecipitation, anti-p85 immunoblot) in HMEC; type: cell-based; conditions: final concentration of peptide 500 μg/ml
T1 construct: endogenous in cells; host or cells: human microvascular endothelial cells (HMEC)
Method: as §1
As it is widely admitted that the tyrosine phosphorylation of IRS-1 leads to its association with the regulatory subunit (p85) of the enzyme PI-3K, and this event lead to important increases in the enzymatic activity of this later, we have investigated the influence of the tyrosine phosphorylated and non phosphorylated peptides onto the recruitment of the regulatory subunit (p85) of the enzyme PI-3K by IRS-1. For that, human microvascular endothelial cells (HMEC) were incubated with the tyrosine phosphorylated and non phosphorylated peptides (final concentration of peptide 500 μg/ml) followed by cells lysis and immuoprecipitation of the protein IRS-1. The immunoprecipitates were then resolved in SDS-PAGE, proteins were transferred to membranes, and the membranes were immunoblotted with an anti-p85 PI3K monoclonal antibody.

T1 sequence (P27986 whole entry): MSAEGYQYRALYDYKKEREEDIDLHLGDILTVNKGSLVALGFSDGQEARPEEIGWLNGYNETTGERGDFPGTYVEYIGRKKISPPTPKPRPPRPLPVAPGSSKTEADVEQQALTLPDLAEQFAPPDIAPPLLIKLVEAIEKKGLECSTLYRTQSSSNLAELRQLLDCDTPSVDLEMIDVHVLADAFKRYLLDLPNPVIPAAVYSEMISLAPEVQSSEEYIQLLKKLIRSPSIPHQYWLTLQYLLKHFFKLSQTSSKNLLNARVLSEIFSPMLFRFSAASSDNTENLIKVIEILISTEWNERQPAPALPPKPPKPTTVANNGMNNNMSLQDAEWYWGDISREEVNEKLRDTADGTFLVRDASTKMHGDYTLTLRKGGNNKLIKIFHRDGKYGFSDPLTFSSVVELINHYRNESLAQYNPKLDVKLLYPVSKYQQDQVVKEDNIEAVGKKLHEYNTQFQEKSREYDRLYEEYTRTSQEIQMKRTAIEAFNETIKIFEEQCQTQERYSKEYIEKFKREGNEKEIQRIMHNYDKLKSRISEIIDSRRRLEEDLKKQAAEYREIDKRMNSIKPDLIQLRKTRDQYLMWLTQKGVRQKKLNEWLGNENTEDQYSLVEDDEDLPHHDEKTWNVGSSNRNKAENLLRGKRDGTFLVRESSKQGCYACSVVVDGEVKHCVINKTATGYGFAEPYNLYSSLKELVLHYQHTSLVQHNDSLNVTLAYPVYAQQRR

CSCC[C@H](NC(=O)[C@H](Cc1ccccc1)NC(=O)[C@H](CCSC)NC(=O)[C@H](Cc1ccc(OP(=O)(O)O)cc1)NC(=O)CNC(C)=O)C(=O)N[C@@H](CO)C(N)=O [GS-1, GpYMFMS] (Ac-G[pY]MFMS-NH2)
amounts of mTOR in HMEC relative to vehicle (mTOR): much less amounts of mTOR | solubility in 10% DMSO [1]: soluble | toxicity and body weight loss during treatment ([2]; 8 mg/kg intraperitoneally every day, 12 injections): No toxicity and no body weight loss | Mean body weight D1 ([2]; Table 1, 8 mg/kg i.p. daily, day 1, in g): 23.58 | Mean body weight D3 ([2]; Table 1, 8 mg/kg i.p. daily, day 3, in g): 23.27 | Mean body weight D5 ([2]; Table 1, 8 mg/kg i.p. daily, day 5, in g): 20.69 | Mean body weight D7 ([2]; Table 1, 8 mg/kg i.p. daily, day 7, in g): 23.29 | Mean body weight D9 ([2]; Table 1, 8 mg/kg i.p. daily, day 9, in g): 23.72 | Mean body weight D11 ([2]; Table 1, 8 mg/kg i.p. daily, day 11, in g): 23.81 | Mean body weight D13 ([2]; Table 1, 8 mg/kg i.p. daily, day 13, in g): 23.48 | in vitro angiogenesis-inhibitory activity [3]: have in vitro angiogenesis-inhibitory activities | influence on the in vivo growth of the tumor NCI-H460 (in words) (NCI-H460 tumors; 8 mg/kg i.p. daily for 12 days): highly significant and potent influence; also recorded: statistically significant and potent anti-tumoral activity | mean tumor volume at the end of treatment (NCI-H460 tumors; 8 mg/kg i.p. daily for 12 days, n=5): 234.98 ± 69.22 mm^3 | Mean tumor volume D1 (NCI-H460 tumors; Table 2, 8 mg/kg i.p. daily, day 1): 114 mm³ | Mean tumor volume D3 (NCI-H460 tumors; Table 2, 8 mg/kg i.p. daily, day 3): 133 mm³ | Mean tumor volume D5 (NCI-H460 tumors; Table 2, 8 mg/kg i.p. daily, day 5): 124 mm³ | Mean tumor volume D7 (NCI-H460 tumors; Table 2, 8 mg/kg i.p. daily, day 7): 141 mm³ | Mean tumor volume D9 (NCI-H460 tumors; Table 2, 8 mg/kg i.p. daily, day 9): 231 mm³ | Mean tumor volume D11 (NCI-H460 tumors; Table 2, 8 mg/kg i.p. daily, day 11): 334 mm³ | Mean tumor volume D13 (NCI-H460 tumors; Table 2, 8 mg/kg i.p. daily, day 13): 235 mm³ | influence onto the recruitment of the regulatory subunit (p85) of PI3K by IRS-1 [4]: very strong inhibitory effects

DpYMTMQ (Ac-D[pY]MTMQ-NH2) [GS-3, tyrosine phosphorylated peptide]
in vitro angiogenesis-inhibitory activity [3]: have in vitro angiogenesis-inhibitory activities
